Experimental findings from ChEMBL document CHEMBL1121861, “Mammalian metabolism of phencyclidine” (J Med Chem, 1981) are described below.

For one data set, the species on record is Canis familiaris. Put plainly: Compound was evaluated for the mean locomotor activity ([…]) by the difference in the counts between postinjection and preinjection activities. The class given is functional, Canis lupus familiaris.
The nature of data set [1]: Half-life determined in the urine of monkey. To be noted: simiiformes. The class given is ADME.
Data set [2] can be described thus: Half-life determined in the urine of dog. The format is ADME, organism-based, Canis lupus familiaris.

SMILES strings stand for the structures.

For the compound `Cl.O=C(O)CCCCNC1(c2ccccc2)CCCCC1`, the Activity in the data set filed under Canis familiaris is listed as -1063. On the same count and under the same terms, the same measure for `COC(=O)CCCCNC1(c2ccccc2)CCCCC1.Cl`: -1418; for `Cl.O=C(O)CCCCNC1(c2ccccc2)CCCCC1.c1ccc(C2(N3CCCCC3)CCCCC2)cc1`: 2478. In the case of `COC(=O)CCCCNC1(c2ccccc2)CCCCC1.Cl.c1ccc(C2(N3CCCCC3)CCCCC2)cc1`, the Activity in the data set filed under Canis familiaris is reported as 2388. What is called half-life is the time in which the quantity being followed falls by half. On to `Cl.c1ccc(C2(N3CCCCC3)CCCCC2)cc1` [PHENCYCLIDINE HYDROCHLORIDE], for which the half-life is 142 min in data set [1] and 172 min in data set [2]. The compound also had an Activity in the data set filed under Canis familiaris of 3062.
